Test results as given in ChEMBL document CHEMBL1201862, “PubChem BioAssay data set” (2004).
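A five-concentration, 48-hour dose response in 96-well plates underlies each endpoint, interpolated linearly between surrounding concentrations. GI50 = concentration required for 50% inhibition of growth.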 Activity calls are given as the source filed them. No stated cut-off is given here; in the data, active = GI50 up to about 1.1 µM and inactive = higher.

Columns and labels:
Experiment in all cases: NCI tumour cell line growth inhibition, 48 h
786-0 = system: 786-0
A549 = system: A549
CAKI-1 = system: CAKI-1
CCRF-CEM = system: CCRF-CEM
DU-145 = system: DU-145
HL-60 = system: HL-60
HOP-92 = system: HOP-92
Hs-578T = system: Hs-578T
K562 = system: K562
MCF7 = system: MCF7
NCI-H226 = system: NCI-H226
NCI-H460 = system: NCI-H460
RPMI-8226 = system: RPMI-8226
SK-MEL-28 = system: SK-MEL-28
SN12C = system: SN12C
SNB-75 = system: SNB-75
SR = system: SR
SW-620 = system: SW-620
U-251 = system: U-251
UACC-62 = system: UACC-62

Measured: GI50

CCN(C(=O)N[C@@H](C)C(=O)N[C@@H](Cc1ccccc1)C(=O)OC)c1ccccc1
inactive: 786-0 39 µM | A549 > 100 µM | CAKI-1 > 100 µM | CCRF-CEM > 100 µM | DU-145 46 µM | HL-60 28.4 µM | HOP-92 19.4 µM | Hs-578T 70.6 µM | K562 32 µM | MCF7 > 100 µM | NCI-H226 > 100 µM | NCI-H460 17.5 µM | RPMI-8226 38.5 µM | SK-MEL-28 33.2 µM | SN12C 23 µM | SNB-75 54 µM | SR 26 µM | SW-620 > 100 µM | U-251 > 100 µM | UACC-62 31.6 µM

CCOC(=O)c1nc2ccc(C(F)(F)F)cc2nc1Oc1ccc(F)cc1
inactive: 786-0 > 100 µM | CAKI-1 > 100 µM | CCRF-CEM > 100 µM | DU-145 > 100 µM | HL-60 > 100 µM | HOP-92 > 100 µM | Hs-578T > 100 µM | K562 42.3 µM | MCF7 > 100 µM | NCI-H226 > 100 µM | NCI-H460 > 100 µM | RPMI-8226 > 100 µM | SK-MEL-28 > 100 µM | SNB-75 > 100 µM | SR > 100 µM | SW-620 > 100 µM | U-251 > 100 µM | UACC-62 > 100 µM

O=C1CC2C(=O)C1C(C(=O)O)C2C(=O)O (stereo unspecified)
inactive: 786-0 > 100 µM | A549 > 100 µM | CAKI-1 > 100 µM | CCRF-CEM > 100 µM | DU-145 > 100 µM | HL-60 > 100 µM | HOP-92 > 100 µM | Hs-578T > 100 µM | K562 > 100 µM | MCF7 > 100 µM | NCI-H226 > 100 µM | NCI-H460 > 100 µM | RPMI-8226 > 100 µM | SK-MEL-28 > 100 µM | SN12C > 100 µM | SR > 100 µM | SW-620 > 100 µM | U-251 > 100 µM | UACC-62 > 100 µM

CSc1c(C(=O)Nc2ccc(C)cc2)c(N)nn1-c1ccccc1
inactive: 786-0 19.9 µM | A549 27.3 µM | CAKI-1 23.4 µM | CCRF-CEM > 100 µM | DU-145 42.8 µM | HL-60 > 100 µM | HOP-92 23.6 µM | Hs-578T 46.9 µM | K562 > 100 µM | MCF7 > 100 µM | NCI-H226 > 100 µM | NCI-H460 3.55 µM | RPMI-8226 > 100 µM | SK-MEL-28 55.1 µM | SN12C > 100 µM | SR 9.89 µM | SW-620 > 100 µM | U-251 28.3 µM | UACC-62 95.9 µM
